In US8466200B2, “2-adamantylurea derivatives as selective 11β-HSD1 inhibitors” (Merck Patent GmbH, priority 2005, dated 2013):
pIC50: −log10 of the molar value. Where two headings read alike, the source gives them in different places. One block for each molecule: values may come before it.

Experiments:
human 11-beta HSD2 = biological target: T1, human 11-beta HSD2 (Homo sapiens, UniProt P80365); experiment: 11 beta-HSD2 enzyme assay, human recombinant enzyme; format: biochemical; conditions: selectivity table, Example 10; read-out: Inhibition of human 11-beta HSD2 IC50
T1 construct: made in house; host or cells: E. coli
T1 sequence (P80365 1-405): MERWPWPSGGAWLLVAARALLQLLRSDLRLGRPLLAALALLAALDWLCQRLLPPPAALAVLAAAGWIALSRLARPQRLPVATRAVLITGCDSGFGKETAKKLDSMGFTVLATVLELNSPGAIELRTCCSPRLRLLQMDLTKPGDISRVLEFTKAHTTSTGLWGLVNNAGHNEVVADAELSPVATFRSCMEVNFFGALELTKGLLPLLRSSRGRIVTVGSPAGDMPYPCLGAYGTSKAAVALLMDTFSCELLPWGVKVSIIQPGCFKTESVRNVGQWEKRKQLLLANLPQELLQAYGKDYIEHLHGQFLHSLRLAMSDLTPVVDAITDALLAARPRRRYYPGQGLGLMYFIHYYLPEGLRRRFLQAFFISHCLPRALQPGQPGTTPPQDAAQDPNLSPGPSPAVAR
Excerpt: This assay was similarly applied to 11beta-HSD2, whereby cortisol, NAD, and carbenoxolon were used as the substrate, cofactor and stopping agent, respectively.

human 11-beta HSD1 = biological target: T2, human 11-beta HSD1 (Homo sapiens, UniProt P28845); experiment: 11 beta-HSD1 enzyme assay (HTRF cortisol), human recombinant enzyme; format: biochemical; conditions: read-out: Inhibition of human 11-beta HSD1 IC50
T2 construct: made in house; host or cells: E. coli
T2 sequence (P28845 whole entry): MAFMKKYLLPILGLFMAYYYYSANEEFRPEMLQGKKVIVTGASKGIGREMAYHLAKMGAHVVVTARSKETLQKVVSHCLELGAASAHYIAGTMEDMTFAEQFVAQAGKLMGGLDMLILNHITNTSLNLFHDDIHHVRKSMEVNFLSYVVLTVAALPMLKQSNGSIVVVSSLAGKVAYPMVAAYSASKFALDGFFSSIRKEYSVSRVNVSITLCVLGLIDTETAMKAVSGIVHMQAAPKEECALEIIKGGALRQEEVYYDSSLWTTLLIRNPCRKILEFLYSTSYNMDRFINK
Description: (§1) Human recombinant 11 beta-hydroxysteroid dehydrogenase type 1 (11 beta-HSD1) and type 2 (11 beta-HSD2) enzymes were expressed in E. coli. Rat and mice liver microsome fractions were purchased from TEBU.
(§2) The 11 beta-HSD1 enzyme assay was carried out in 96 well microtiter plates in a total volume of 100 μl containing 30 mM HEPES buffer, pH 7,4 with 1 mM EDTA, substrate mixture cortisone/NADPH (200 nM/200 μM), G-6-P (1 mM) and inhibitors in serial dilutions. Reactions were initiated by addition of 10 μl 11beta-HSD1 (3 μg) from E. coli, either as microsome fractions from rat or mice liver (2.5 μg). Following mixing, the plates were shaken for 150 minutes at 37° C. The reactions were terminated with 100 Acid-18beta glycyrrhetinic stop solution. Determinations of cortisol levels in 11 beta-HSD1 preparations were monitored by HTRF (HTRF cortisol assay from C is bio international).

rat 11-beta HSD1 = rat 11-beta HSD1 (Rattus norvegicus, UniProt P16232); experiment: 11 beta-HSD1 enzyme assay, rat liver microsome fractions; format: biochemical; conditions: read-out: Inhibition of rat 11-beta HSD1 IC50
Sequence of rat 11-beta HSD1 (P16232 whole entry): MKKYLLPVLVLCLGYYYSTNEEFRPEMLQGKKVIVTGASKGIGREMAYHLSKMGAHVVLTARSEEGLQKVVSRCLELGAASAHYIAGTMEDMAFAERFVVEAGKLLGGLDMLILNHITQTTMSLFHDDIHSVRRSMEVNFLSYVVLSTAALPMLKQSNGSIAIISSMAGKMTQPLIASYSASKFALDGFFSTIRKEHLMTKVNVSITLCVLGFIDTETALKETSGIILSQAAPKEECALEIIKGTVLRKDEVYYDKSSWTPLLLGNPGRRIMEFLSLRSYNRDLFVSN
Description: as §1, §2

mouse 11-beta HSD1 = mouse 11-beta HSD1 (Mus musculus, UniProt P50172); experiment: 11 beta-HSD1 enzyme assay, mice liver microsome fractions
Sequence of mouse 11-beta HSD1 (P50172 whole entry): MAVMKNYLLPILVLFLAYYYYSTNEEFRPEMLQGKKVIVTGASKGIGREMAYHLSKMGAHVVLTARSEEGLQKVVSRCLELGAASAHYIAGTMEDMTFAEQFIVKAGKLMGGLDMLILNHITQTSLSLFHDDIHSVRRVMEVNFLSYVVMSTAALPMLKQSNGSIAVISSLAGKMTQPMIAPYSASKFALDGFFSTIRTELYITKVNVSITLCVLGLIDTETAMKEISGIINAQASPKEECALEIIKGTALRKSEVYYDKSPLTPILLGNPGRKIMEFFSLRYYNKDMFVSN
Description: as §1, §2

[1] = recombinant enzyme from E. coli

pIC50 (rat 11-beta HSD1): 8.10
pIC50 (mouse 11-beta HSD1): 6.36
pIC50 (human 11-beta HSD1; [1]): 6.37
SMILES: O=C(NCCc1ccccc1)NC1C2CC3CC(C2)CC1C3 (centres unmarked) [Ex 1-12, 1-Adamantan-2-yl-3-phenethyl-urea]

pIC50 (human 11-beta HSD1; [1]): 7.80
SMILES: C[C@@H](NC(=O)NC1C2CC3CC(C2)CC1C3)c1ccccc1 (stereo partly drawn) [Ex 1-61, 1-Adamantan-2-yl-3-((R)-1-phenyl-ethyl)-urea]

pIC50 (human 11-beta HSD1; [1]): 6.47
SMILES: O=C(Nc1ccccc1C(F)(F)F)NC1C2CC3CC(C2)CC1C3 (centres unmarked) [Ex 1-3, 1-Adamantan-2-yl-3-(2-trifluoromethyl-phenyl)-urea]

pIC50 (human 11-beta HSD1; [1]): 6.17
SMILES: O=C(Nc1cc(Cl)nc(Cl)c1)NC1C2CC3CC(C2)CC1C3 (centres unmarked) [Ex 1-26, 1-Adamantan-2-yl-3-(2,6-dichloro-pyridin-4-yl)-urea]

pIC50 (human 11-beta HSD1; [1]): 7.37
SMILES: O=C(NCCc1cccs1)NC1C2CC3CC(C2)CC1C3 (centres unmarked) [Ex 1-16, 1-Adamantan-2-yl-3-(2-thiophen-2-yl-ethyl)-urea]

pIC50 (human 11-beta HSD1; [1]): 7.17
SMILES: CCc1cccc(NC(=O)NC2C3CC4CC(C3)CC2C4)c1 (centres unmarked) [Ex 1-20, 1-Adamantan-2-yl-3-(3-ethyl-phenyl)-urea]

pIC50 (mouse 11-beta HSD1): 5.46
pIC50 (human 11-beta HSD1; [1]): 5.68
SMILES: O=C(NCc1ccco1)NC1C2CC3CC(C2)CC1C3 (centres unmarked) [Ex 1-44, 1-Adamantan-2-yl-3-furan-2-ylmethyl-urea]

pIC50 (rat 11-beta HSD1): 7.33
pIC50 (mouse 11-beta HSD1): 6.45
pIC50 (human 11-beta HSD1; [1]): 6.43
SMILES: O=C(NC1CCCC1)NC1C2CC3CC(C2)CC1C3 (centres unmarked) [Ex 1-39, 1-Adamantan-2-yl-3-cyclopentyl-urea]

pIC50 (rat 11-beta HSD1): 5.88
pIC50 (human 11-beta HSD1; [1]): 6.14
SMILES: O=C(NC1C2CC3CC(C2)CC1C3)N1CCCC1 (centres unmarked) [Ex 3-3, Pyrrolidine-1-carboxylic acid adamantan-2-ylamide]

pIC50 (human 11-beta HSD1; [1]): 7.24
SMILES: O=C(Nc1ccc2ccccc2c1)NC1C2CC3CC(C2)CC1C3 (centres unmarked) [Ex 1-23, 1-Adamantan-2-yl-3-naphthalen-2-yl-urea]

pIC50 (human 11-beta HSD1; [1]): 6.13
SMILES: Cc1cccc(CNC(=O)NC2C3CC4CC(C3)CC2C4)c1 (centres unmarked) [Ex 1-34, 1-Adamantan-2-yl-3-(3-methyl-benzyl)-urea]

pIC50 (human 11-beta HSD1; [1]): 6.57
SMILES: COc1cc(NC(=O)NC2C3CC4CC(C3)CC2C4)cc(OC)c1 (centres unmarked) [Ex 1-7, 1-Adamantan-2-yl-3-(3,5-dimethoxy-phenyl)-urea]

Further lines, the molecule ahead of its results:

SMILES: COc1ccc(NC(=O)NC2C3CC4CC(C3)CC2C4)c(C)c1 (centres unmarked) [drawing 13]
pIC50 (human 11-beta HSD2): < 5.00
pIC50 (human 11-beta HSD1; selectivity table, Example 10): 7.92

SMILES: Cc1c(NC(=O)NC2C3CC4CC(C3)CC2C4)cccc1C(=O)O (centres unmarked) [Ex 6, 3-(3-Adamantan-2-yl-ureido)-2-methyl-benzoic acid]
pIC50 (human 11-beta HSD1; [1]): 6.26

SMILES: Cc1cc(O)ccc1NC(=O)NC1C2CC3CC(C2)CC1C3 (centres unmarked) [Ex 7, 1-Adamantan-2-yl-3-(4-hydroxy-2-methyl-phenyl)-urea]
melting point: 212 to 214 °C

SMILES: C[C@@H](NC(=O)NC1C2CC3CC(C2)CC1C3)c1ccccc1 (some centres unmarked) [drawing 15]
pIC50 (human 11-beta HSD2): < 5.00
pIC50 (human 11-beta HSD1; selectivity table, Example 10): 7.80

SMILES: COc1ccc(NC(=O)NC2C3CC4CC(C3)CC2C4)c(C)c1 (centres unmarked) [Ex 1, 1-Adamantan-2-yl-3-(4-methoxy-2-methyl-phenyl)-urea]
melting point: 186 °C
pIC50 (rat 11-beta HSD1): 6.72
pIC50 (mouse 11-beta HSD1): 7.01
pIC50 (human 11-beta HSD1; [1]): 7.82

SMILES: Cc1cc(OCCN2CCCCC2)ccc1NC(=O)NC1C2CC3CC(C2)CC1C3 (centres unmarked) [Ex 8, 1-Adamantan-2-yl-3-(2-methyl-4-(2-piperidin-1-yl-ethoxyl)phenyl)-urea]
pIC50 (rat 11-beta HSD1): 5.84
pIC50 (mouse 11-beta HSD1; read-out: Inhibition of mouse 11-beta HSD1 IC50, mice liver microsome fractions): 5.91

SMILES: O=C(NC1CCCC1)NC1C2CC3CC(C2)CC1C3 (centres unmarked) [drawing 14]
pIC50 (human 11-beta HSD2): < 5.00
pIC50 (human 11-beta HSD1; selectivity table, Example 10): 6.43
